US6677347B2, “Sulfonamido ether substituted imidazoquinolines” (3M Innovative Properties Company, priority 2000, dated 2004)

Tests used:
[1] = tested on: tumor necrosis factor (α); experiment: Cytokine Induction in Human Cells: tumor necrosis factor (α) by ELISA or IGEN assay; assay type: cell-based; design: key to Lowest Effective Concentration (μM) Tumor Necrosis Factor: *: no induction was seen at any of the tested concentrations; generally the highest concentration tested was 10 or 30 μM; conditions: human PBMC, 18 to 24 hours incubation, lowest concentration found to induce tumor necrosis factor
Excerpt: (§1) An in vitro human blood cell system is used to assess cytokine induction. Activity is based on the measurement of interferon and tumor necrosis factor (α) (IFN and TNF, respectively) secreted into culture media as described by Testerman et. al. In “Cytokine Induction by the Immunomodulators Imiquimod and S-27609”, Journal of Leukocyte Biology, 58, 365-372 (September, 1995).
(§2) Whole blood from healthy human donors is collected by venipuncture into EDTA vacutainer tubes. Peripheral blood mononuclear cells (PBMC) are separated from whole blood by density gradient centrifugation using Histopaque®-1077. Blood is diluted 1:1 with Dulbecco's Phosphate Buffered Saline (DPBS) or Hank's Balanced Salts Solution (HBSS). The PBMC layer is collected and washed twice with DPBS or HBSS and resuspended at 4×10^6 cells/mL in RPMI complete. The PBMC suspension is added to 48 well flat bottom sterile tissue culture plates (Costar, Cambridge, Mass. or Becton Dickinson Labware, Lincoln Park, N.J.) containing an equal volume of RPMI complete media containing test compound.
(§3) The compounds are solubilized in dimethyl sulfoxide (DMSO). The DMSO concentration should not exceed a final concentration of 1% for addition to the culture wells. The compounds are generally tested at concentrations ranging from 30-0.014 μM.
(§4) The solution of test compound is added at 60 μM to the first well containing RPMI complete and serial 3 fold dilutions are made in the wells. The PBMC suspension is then added to the wells in an equal volume, bringing the test compound concentrations to the desired range (30-0.014 μM). The final concentration of PBMC suspension is 2×10^6 cells/mL. The plates are covered with sterile plastic lids, mixed gently and then incubated for 18 to 24 hours at 37° C. in a 5% carbon dioxide atmosphere.
(§5) Following incubation the plates are centrifuged for 10 minutes at 1000 rpm (˜200×g) at 4° C. The cell-free culture supernatant is removed with a sterile polypropylene pipet and transferred to sterile polypropylene tubes. Samples are maintained at −30 to −70° C. until analysis. The samples are analyzed for interferon (α) by ELISA and for tumor necrosis factor (α) by ELISA or IGEN Assay
Tumor necrosis factor (α) (TNF) concentration is determined using ELISA kits available from Biosource International, Camarillo, Calif. Alternately, the TNF concentration can be determined by Origen® M-Series Immunoassay and read on an IGEN M-8 analyzer from IGEN International, Gaithersburg, Md. The immunoassay uses a human TNF capture and detection antibody pair from Biosource International, Camarillo, Calif. Results are expressed in pg/mL.
(§6) The table below lists the lowest concentration found to induce interferon and the lowest concentration found to induce tumor necrosis factor for each compound.

interferon (α) = experiment: Cytokine Induction in Human Cells: interferon (α) by ELISA; assay type: cell-based; design: key to Lowest Effective Concentration (μM) Interferon: *: no induction was seen at any of the tested concentrations; generally the highest concentration tested was 10 or 30 μM; conditions: human PBMC, 18 to 24 hours incubation, lowest concentration found to induce interferon
Excerpt: as §1, §2, §3, §4, §5
Interferon (α) concentration is determined by ELISA using a Human Multi-Species kit from PBL Biomedical Laboratories, New Brunswick, N.J. Results are expressed in pg/mL.
as §6

| Structure (SMILES) | minimal effective concentration [1] [µM] | minimal effective concentration (interferon (α)) [µM] | Lowest Effective Concentration (μM) Interferon (interferon (α)) | Lowest Effective Concentration (μM) Tumor Necrosis Factor [1] |
| --- | --- | --- | --- | --- |
| CCCCc1nc2c(N)nc3ccccc3c2n1CCOCCNS(=O)(=O)CC [Example 6] | 1 | 0.001 |  |  |
| CCCCc1nc2c(N)nc3ccccc3c2n1CCOCCNS(=O)(=O)C(C)C [Example 7] | 1 | 0.01 |  |  |
| CCCCc1nc2c(N)nc3ccccc3c2n1CCOCCNS(=O)(=O)N(C)C [Example 8] | 1 | 0.01 |  |  |
| CCCCc1nc2c(N)nc3ccccc3c2n1CCOCCNS(=O)(=O)CCCC [Example 9] | 1 | 0.1 |  |  |
| CCCCc1nc2c(N)nc3ccccc3c2n1CCOCCNS(=O)(=O)c1ccccc1 [Example 10] | 10 | 1 |  |  |
| CCCCc1nc2c(N)nc3ccccc3c2n1CCOCCNS(=O)(=O)c1cccs1 [Example 11] | 10 | 1 |  |  |
| CCCCc1nc2c(N)nc3ccccc3c2n1CCOCCNS(=O)(=O)Cc1ccccc1 [Example 12] | 10 | 0.1 |  |  |
| CCCCc1nc2c(N)nc3ccccc3c2n1CCOCCNS(=O)(=O)c1cccc(F)c1 [Example 13] | 10 | 1 |  |  |
| CCCCc1nc2c(N)nc3ccccc3c2n1CCOCCNS(=O)(=O)c1ccc(C#N)cc1 [Example 14] | 10 | 1 |  |  |
| CCCCc1nc2c(N)nc3ccccc3c2n1CCOCCNS(=O)(=O)c1cccc(C#N)c1 [Example 15] | 10 | 10 |  |  |
| CCCCc1nc2c(N)nc3ccccc3c2n1CCOCCNS(=O)(=O)c1ccc(OC)cc1 [Example 16] | 10 | 1 |  |  |
| CCCCc1nc2c(N)nc3ccccc3c2n1CCOCCNS(=O)(=O)c1ccc(F)cc1F [Example 17] | 10 | 1 |  |  |
| CCCCc1nc2c(N)nc3ccccc3c2n1CCOCCNS(=O)(=O)c1cccc2ccccc12 [Example 18] | 10 |  | * |  |
| CCCCc1nc2c(N)nc3ccccc3c2n1CCOCCNS(=O)(=O)c1ccc2ccccc2c1 [Example 19] | 10 |  | * |  |
| CCCCc1nc2c(N)nc3ccccc3c2n1CCOCCNS(=O)(=O)c1cccc2cccnc12 [Example 20] | 10 | 1 |  |  |
| CCCCc1nc2c(N)nc3ccccc3c2n1CCOCCNS(=O)(=O)c1ccc(C(F)(F)F)cc1 [Example 21] | 10 | 10 |  |  |
| CCCCc1nc2c(N)nc3ccccc3c2n1CCOCCNS(=O)(=O)c1ccc(-c2ccccc2)cc1 [Example 22] | 10 | 0.0001 |  |  |
| CCCCc1nc2c(N)nc3ccccc3c2n1CCOCCNS(=O)(=O)c1ccc(S(C)(=O)=O)cc1 [Example 23] | 10 | 0.0001 |  |  |
| CCCCc1nc2c(N)nc3ccccc3c2n1CCOCCNS(=O)(=O)c1ccc(OC(F)(F)F)cc1 [Example 24] | 10 | 0.0001 |  |  |
| CCCCc1nc2c(N)nc3ccccc3c2n1CCOCCNS(=O)(=O)c1ccc(/N=N/c2ccc(N(C)C)cc2)cc1 [Example 25] |  | 0.0001 |  | * |
| CCCCc1nc2c(N)nc3ccccc3c2n1CCOCCNS(=O)(=O)C[C@@]12CC[C@@H](CC1=O)C2(C)C [Example 26] | 10 | 0.01 |  |  |
| CCC(COCCC1CCN(S(=O)(=O)C(C)C)CC1)n1cnc2c(N)nc3ccccc3c21 (centres unmarked) [Example 27] | 1 | 0.1 |  |  |

| Structure (SMILES) | minimal effective concentration [1] [µM] | minimal effective concentration (interferon (α)) [µM] | Lowest Effective Concentration (μM) Interferon (interferon (α)) | Lowest Effective Concentration (μM) Tumor Necrosis Factor [1] |
| --- | --- | --- | --- | --- |
| CCC(COCCC1CCN(S(=O)(=O)N(C)C)CC1)n1cnc2c(N)nc3ccccc3c21 (centres unmarked) [Example 28] | 1 | 0.1 |  |  |
| CCCCS(=O)(=O)N1CCC(CCOCC(CC)n2cnc3c(N)nc4ccccc4c32)CC1 (centres unmarked) [Example 29] | 10 | 1 |  |  |
| CCC(COCCC1CCN(S(=O)(=O)c2ccccc2)CC1)n1cnc2c(N)nc3ccccc3c21 (centres unmarked) [Example 30] | 10 | 1 |  |  |
| CCC(COCCC1CCN(S(=O)(=O)c2cccs2)CC1)n1cnc2c(N)nc3ccccc3c21 (centres unmarked) [Example 31] | 10 | 1 |  |  |
| CCC(COCCC1CCN(S(=O)(=O)c2cccc(F)c2)CC1)n1cnc2c(N)nc3ccccc3c21 (centres unmarked) [Example 32] | 1 | 1 |  |  |
| CCC(COCCC1CCN(S(=O)(=O)c2cccc(C#N)c2)CC1)n1cnc2c(N)nc3ccccc3c21 (centres unmarked) [Example 33] | 1 | 1 |  |  |
| CCC(COCCC1CCN(S(=O)(=O)c2ccc(OC)cc2)CC1)n1cnc2c(N)nc3ccccc3c21 (centres unmarked) [Example 34] | 1 | 1 |  |  |
| CCC(COCCC1CCN(S(=O)(=O)c2ccc(F)cc2F)CC1)n1cnc2c(N)nc3ccccc3c21 (centres unmarked) [Example 35] | 1 | 1 |  |  |
| CCC(COCCC1CCN(S(=O)(=O)c2cccc3cccnc23)CC1)n1cnc2c(N)nc3ccccc3c21 (centres unmarked) [Example 36] | 10 | 1 |  |  |
| CCC(COCCC1CCN(S(=O)(=O)c2ccc(S(C)(=O)=O)cc2)CC1)n1cnc2c(N)nc3ccccc3c21 (centres unmarked) [Example 37] | 1 | 0.1 |  |  |
| CCC(COCCC1CCN(S(=O)(=O)c2ccc(OC(F)(F)F)cc2)CC1)n1cnc2c(N)nc3ccccc3c21 (centres unmarked) [Example 38] |  |  | * | * |
| CCC(COCCC1CCN(S(=O)(=O)c2ccc(/N=N/c3ccc(N(C)C)cc3)cc2)CC1)n1cnc2c(N)nc3ccccc3c21 (centres unmarked) [Example 39] |  | 1 |  | * |
| Nc1nc2ccccc2c2c1ncn2CCOCCNS(=O)(=O)c1ccccc1 [Example 41] | 1 | 10 |  |  |
| Nc1nc2ccccc2c2c1ncn2CCOCCNS(=O)(=O)c1cccc(F)c1 [Example 42] | 1 | 10 |  |  |
| COc1ccc(S(=O)(=O)NCCOCCn2cnc3c(N)nc4ccccc4c32)cc1 [Example 43] | 10 | 10 |  |  |
| Nc1nc2ccccc2c2c1ncn2CCOCCNS(=O)(=O)c1ccc(F)cc1F [Example 44] | 10 | 1 |  |  |
| Nc1nc2ccccc2c2c1ncn2CCOCCNS(=O)(=O)c1ccc2ccccc2c1 [Example 45] |  |  | * | * |
| Nc1nc2ccccc2c2c1ncn2CCOCCNS(=O)(=O)c1ccc(C(F)(F)F)cc1 [Example 46] |  |  | * | * |
| Nc1nc2ccccc2c2c1ncn2CCOCCNS(=O)(=O)c1ccc(-c2ccccc2)cc1 [Example 47] |  |  | * | * |
| CS(=O)(=O)c1ccc(S(=O)(=O)NCCOCCn2cnc3c(N)nc4ccccc4c32)cc1 [Example 48] | 10 |  | * |  |
| Nc1nc2ccccc2c2c1ncn2CCOCCNS(=O)(=O)c1ccc(OC(F)(F)F)cc1 [Example 49] | 10 |  | * |  |
